The results in this text go back to US20260008760A1, “DIPEPTIDYL PEPTIDASE 1 INHIBITORS AND USES THEREOF” (Insmed Incorporated, priority 2024, published 2026).

Read-outs that look alike come from different tables or passages of the source.

The target in one assay is DPP1 in HL-60 cells (Homo sapiens, UniProt P53634). Briefly: DPP1 Cell IC50 assay. As to conditions: 60 min pre-incubation, H-Gly-Phe-AFC substrate, average of n runs. Details: host or cells: HL-60 cells. It counts as cell-based. The method in brief: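 Intracellular DPP1 activity read as AFC fluorescence (Ex/Em 400/505 nm) after 30 min with H-Gly-Phe-AFC (500 μM stock), following 60 min compound pre-incubation at 37° C with HL-60 cells at 5×10^5 live cells per mL in PBS. IC50 by 4-parameter fit against DMSO-only controls.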

The next assay has as its target human DPP1 enzyme (Homo sapiens, UniProt P53634). In words: Human DPP1 Enzyme IC50 Assay. Details: was first proteolytically processed into its mature form using recombinant human cathepsin L; purchased R&D Systems. It counts as biochemical. The method in brief: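 IC50 came from a four-parameter fit of activity relative to no-compound control, with fluorescence (Ex 350/Em 450 nm) read every 5 min for 90 min at 37 °C using 400 μM final H-Gly-Arg-AMC. Cathepsin L-matured human recombinant DPP1 was preincubated 10 min with compound at pH 6.0 (MES, DTT, 1% DMSO).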

The mark [1] stands for this setting: read-out: Avg. IC50 (DPP1 Cell IC50 value ranges).
[2] abbreviates: activated recombinant human DPP1, 400 μM H-Gly-Arg-AMC, 10 minutes pre-incubation at 37° C., pH 6.0, average of n runs, read-out: Avg. IC50 (Human DPP1 enzyme IC50 value ranges).

Sequence of DPP1 in HL-60 cells (P53634 25-463): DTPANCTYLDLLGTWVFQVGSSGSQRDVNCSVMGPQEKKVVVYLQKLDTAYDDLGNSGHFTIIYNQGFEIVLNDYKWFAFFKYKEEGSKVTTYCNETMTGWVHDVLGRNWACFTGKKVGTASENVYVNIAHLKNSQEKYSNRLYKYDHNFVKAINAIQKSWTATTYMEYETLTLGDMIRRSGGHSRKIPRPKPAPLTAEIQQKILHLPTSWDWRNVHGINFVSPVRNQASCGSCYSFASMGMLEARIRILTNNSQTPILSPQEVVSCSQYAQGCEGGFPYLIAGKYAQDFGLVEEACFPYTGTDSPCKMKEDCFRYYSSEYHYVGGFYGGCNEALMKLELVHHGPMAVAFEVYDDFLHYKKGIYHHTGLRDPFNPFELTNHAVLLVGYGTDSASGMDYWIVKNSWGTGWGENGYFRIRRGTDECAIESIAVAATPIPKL
Sequence of human DPP1 enzyme (P53634 25-134 limits assumed): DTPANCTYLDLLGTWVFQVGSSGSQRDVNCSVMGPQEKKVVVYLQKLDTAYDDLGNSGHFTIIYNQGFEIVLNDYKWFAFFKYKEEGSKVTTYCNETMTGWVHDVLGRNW
Sequence of human DPP1 enzyme (P53634 231-394 limits assumed): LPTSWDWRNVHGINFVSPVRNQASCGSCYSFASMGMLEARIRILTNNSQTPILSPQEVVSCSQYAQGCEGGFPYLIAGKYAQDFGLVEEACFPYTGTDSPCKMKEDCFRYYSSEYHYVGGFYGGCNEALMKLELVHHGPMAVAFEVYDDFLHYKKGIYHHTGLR
Sequence of human DPP1 enzyme (P53634 395-463 limits assumed): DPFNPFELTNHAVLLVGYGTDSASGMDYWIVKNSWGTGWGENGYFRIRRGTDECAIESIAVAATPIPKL

For orientation: IC50 means the concentration needed to halve the response being measured. For `CO[C@@H]1CCNC[C@@H](C(=O)N[C@H](C#N)Cc2cc3c(cc2F)-c2cc(C4COC4)c(F)cc2CO3)OC1` [Compound B12, (2S,7R)—N-{1-cyano-2-[2,8-difluoro-9-(oxetan-3-yl)-6H-benzo[c]chromen-3-yl]ethyl}-7-methoxy-1,4-oxazocane-2-carboxamide], the IC50 was 1 to 2.5 nM on DPP1 in HL-60 cells (setting [1]) and under 5 nM on human DPP1 enzyme (setting [2]).
For `N#C[C@H](Cc1cc2c(cc1F)-c1ccc(F)cc1CO2)NC(=O)[C@@H]1CNCCCO1` [Compound B35], the IC50 against DPP1 in HL-60 cells (Avg. IC50 (DPP1 Cell IC50 value ranges)) is over 2.5 nM; on human DPP1 enzyme, over 15 nM.
With `Cn1c(=O)oc2cc3c(cc21)-c1cc(F)c(CC(C#N)NC(=O)[C@@H]2CNCCCO2)cc1OC3` (stereo partly drawn) [Compound C1, (2S)—N-(1-cyano-2-{4-fluoro-15-methyl-14-oxo-8,13-dioxa-15-azatetracyclo[8.7.0.0^{2,7}0.0^{12,16}]heptadeca-1(10),2(7),3,5,11,16-hexaen-5-yl}ethyl)-1,4-oxazepane-2-carboxamide], the values for the IC50 at DPP1 in HL-60 cells (setting [1]) and at human DPP1 enzyme (setting [2]) were over 2.5 nM and under 5 nM, respectively.
Turning to `Cn1c(=O)oc2cc3c(cc21)-c1cc(F)c(C[C@H](C#N)NC(=O)[C@@H]2CNCCCO2)cc1OC3` [Compound C1-A], the IC50 is over 2.5 nM at DPP1 in HL-60 cells (setting [1]) and over 15 nM on human DPP1 enzyme (setting [2]).
On to `Cn1c(=O)oc2cc3c(cc21)-c1cc(F)c(C[C@@H](C#N)NC(=O)[C@@H]2CNCCCO2)cc1OC3` [Compound C1-B], for which the IC50 is 1 to 2.5 nM on DPP1 in HL-60 cells (setting [1]) and under 5 nM on human DPP1 enzyme (setting [2]).
Take `Cn1c(=O)oc2ccc3c(c21)COc1cc(C[C@@H](C#N)NC(=O)[C@@H]2CNCCCO2)c(F)cc1-3` [Compound C2-A]: the 50% inhibitory concentration (IC50) on DPP1 in HL-60 cells (setting [1]) was 1 to 2.5 nM; at human DPP1 enzyme (setting [2]), over 15 nM.
As for `Cn1c(=O)oc2cc3c(cc21)-c1cc(F)c(CC(C#N)NC(=O)[C@@H]2CNCCCCO2)cc1OC3` (stereo partly drawn) [Compound C5, (2S)—N-[(1S)-1-cyano-2-{4-fluoro-15-methyl-14-oxo-8,13-dioxa-15-azatetracyclo[8.7.0.0^{2,7}0.0^{12,16}]heptadeca-1(10),2,4,6,11,16-hexaen-5-yl}ethyl]-1,4-oxazocane-2-carboxamide], the IC50 at DPP1 in HL-60 cells (setting [1]) was 1 to 2.5 nM; on human DPP1 enzyme (setting [2]) it was under 5 nM.
In the same order, the values of `Cc1cn2c3c(cc2c(C)n1)-c1cc(F)c(C[C@@H](C#N)NC(=O)[C@@H]2CNCCCO2)cc1OC3` [Compound C10] are 1 to 2.5 nM and over 15 nM.
In the same order, the values of `Cn1ncc2cc3c(cc21)-c1cc(F)c(C[C@@H](C#N)NC(=O)[C@@H]2CNCCCO2)cc1OC3` [Compound C33] are 1 to 2.5 nM and under 5 nM.
With `Cn1nnc2cc3c(cc21)-c1cc(F)c(C[C@@H](C#N)NC(=O)[C@@H]2CNCCCO2)cc1OC3` [Compound C34], the IC50 on DPP1 in HL-60 cells (setting [1]) was 1 to 2.5 nM; at human DPP1 enzyme (setting [2]), under 5 nM.
As to `N#C[C@H](Cc1ccc(-c2ccc(-c3nnc(N)s3)o2)cc1)NC(=O)[C@@H]1CNCCCO1` [Compound D1, (2S)—N-[(1S)-2-{4-[5-(5-amino-1,3,4-thiadiazol-2-yl)furan-2-yl]phenyl}-1-cyanoethyl]-1,4-oxazepane-2-carboxamide], the 50% inhibitory concentration (IC50) at DPP1 in HL-60 cells (setting [1]) is over 2.5 nM; at human DPP1 enzyme (setting [2]), over 15 nM.
In the same order, the values of `N#C[C@H](Cc1ccc(-c2csc(-c3nnc(N)o3)c2)cc1)NC(=O)[C@@H]1CNCCCO1` [Compound D2, (2S)—N-[(1S)-2-{4-[5-(5-amino-1,3,4-oxadiazol-2-yl)thiophen-3-yl]phenyl}-1-cyanoethyl]-1,4-oxazepane-2-carboxamide] are over 2.5 nM and over 15 nM.
`N#C[C@H](Cc1ccc(-c2cnn([C@@H]3CCOC3)c2)cc1)NC(=O)[C@@H]1CNCCCO1` [Compound D4, (2S)—N-[(1S)-1-cyano-2-(4-{1-[(3R)-oxolan-3-yl]pyrazol-4-yl}phenyl)ethyl]-1,4-oxazepane-2-carboxamide]: the IC50 at DPP1 in HL-60 cells (setting [1]) is over 2.5 nM; on human DPP1 enzyme (setting [2]) it was over 15 nM.
